According to US9206156B2, “Substituted indole derivatives” (GRÜNENTHAL GMBH, priority 2008, dated 2015):

Legend:
ORL1 receptor = molecular target: T1, ORL1 receptor (Homo sapiens, UniProt P41146); assay: ORL1 receptor binding assay with 3H-nociceptin/orphanin FQ (WGA-SPA beads); settings: c=1 μM test substance; 0.5 nM 3H-nociceptin/orphanin FQ; membranes of recombinant CHO-ORL1 cells
T1 construct: expressed in transfected cells; host or cells: CHO (recombinant CHO-ORL1 cells), membranes
Summary of the method: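 Affinity given as nanomolar Ki or as % inhibition at c=1 μM. Membranes of CHO cells expressing recombinant ORL1 (20 μg protein) were incubated one hour at room temperature with 0.5 nM 3H-nociceptin/orphanin FQ in Hepes 50 mM, pH 7.4, plus MgCl2 and EDTA; bound ligand detected by SPA bead scintillation counting.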

human μ-opiate receptor = molecular target: T2, human μ-opiate receptor (Homo sapiens, UniProt P35372); assay: μ-opiate receptor binding assay with [3H] naloxone (WGA-SPA beads); settings: 1 μmol/l test substance, 1 nmol/l [3H] naloxone, CHO-K1 cell membranes expressing human μ-opiate receptor
T2 construct: purchased NEN, Zaventem, Belgium RB-HOM; host or cells: CHO-K1 cells (membrane preparation)
Summary of the method: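 Scintillation proximity readout: [3H]naloxone (1 nmol/l) displacement measured after 90 min, room temperature, on human μ-receptor CHO-K1 membranes in Tris-HCl/azide/BSA buffer; 25 μmol/l naloxone defined non-specific binding. Values are % specific-binding inhibition at 1 μmol/l, or Ki from IC50 (Cheng-Prusoff).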

T1 sequence (P41146 whole entry): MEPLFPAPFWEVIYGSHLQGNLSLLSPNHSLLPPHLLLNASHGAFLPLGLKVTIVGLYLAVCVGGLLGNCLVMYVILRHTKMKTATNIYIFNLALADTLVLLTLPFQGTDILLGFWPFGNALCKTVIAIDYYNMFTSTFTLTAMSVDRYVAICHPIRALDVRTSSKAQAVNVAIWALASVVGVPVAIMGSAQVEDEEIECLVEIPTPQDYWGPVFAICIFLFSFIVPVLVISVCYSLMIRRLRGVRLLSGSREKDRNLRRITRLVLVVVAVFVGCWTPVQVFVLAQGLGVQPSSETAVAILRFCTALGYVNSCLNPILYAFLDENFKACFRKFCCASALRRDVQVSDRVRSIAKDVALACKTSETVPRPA
T2 sequence (P35372 whole entry): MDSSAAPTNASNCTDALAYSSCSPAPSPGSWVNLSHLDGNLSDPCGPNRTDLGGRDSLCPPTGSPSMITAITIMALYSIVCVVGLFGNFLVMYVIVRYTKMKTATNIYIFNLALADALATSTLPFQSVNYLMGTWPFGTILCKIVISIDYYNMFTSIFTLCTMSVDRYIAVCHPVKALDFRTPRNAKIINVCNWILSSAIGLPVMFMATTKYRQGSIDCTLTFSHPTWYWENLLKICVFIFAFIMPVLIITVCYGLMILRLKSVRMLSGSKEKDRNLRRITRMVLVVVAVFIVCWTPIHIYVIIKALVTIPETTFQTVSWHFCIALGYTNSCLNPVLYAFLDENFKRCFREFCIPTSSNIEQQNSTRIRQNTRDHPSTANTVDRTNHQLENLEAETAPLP

| Compound | inhibition at 1 µM (ORL1 receptor) [%] | inhibition at 1 µM (human μ-opiate receptor) [%] | % Inhibition (ORL1) at 1 μM (ORL1 receptor) [%] | % Inhibition (μ) at 1 μM (human μ-opiate receptor) [%] |
| --- | --- | --- | --- | --- |
| CN(CCCN1CCC(c2cccs2)(N(C)C)CC1)C(=O)c1c[nH]c2ccccc12 [Example 11, N-(3-(4-(Dimethylamino)-4-(thiophen-2-yl)piperidin-1-yl)propyl)-N-methyl-1H-indole-3-carboxamide] | 80 | 86 | – | – |
| CC(C)C(C(=O)N1CCC(c2ccccc2)(N(C)C)CC1)N(C)Cc1ccc2[nH]ccc2c1 (stereo not shown) [Example 146, 2-(((1H-indol-5-yl)methyl)(methyl)amino)-1-(4-(dimethylamino)-4-phenylpiperidin-1-yl)-3-methylbutan-1-one] | 24 | 53 | – | – |
| CN(CCN1CCC(c2ccccc2)(N(C)C)CC1)C(=O)c1ccc2ccn(C)c2c1 [Example 119, N-(2-(4-(dimethylamino)-4-phenylpiperidin-1-yl)ethyl)-N,1-dimethyl-1H-indole-6-carboxamide] | 45 | 95 | – | – |
| COc1ccc2[nH]cc(CN(C)CCN3CCC(c4ccccc4)(N(C)C)CC3)c2c1 [Example 190, 1-(2-(((5-methoxy-1H-indol-3-yl)methyl)(methyl)amino)ethyl)-N,N-dimethyl-4-phenylpiperidin-4-amine] | 80 | 97 | – | – |
| CN(CCN1CCC(c2ccccc2)(N2CCCC2)CC1)Cc1ccc2cc[nH]c2c1 [Example 143, N-((1H-indol-6-yl)methyl)-N-methyl-2-(4-phenyl-4-(pyrrolidin-1-yl)piperidin-1-yl)ethanamine] | 13 | 71 | – | – |
| CCCCC1(N(C)C)CCN(CCN(C)C(=O)CC(c2c[nH]c3ccccc23)C(C)C)CC1 (stereo not shown) [Example 33, N-(2-(4-Butyl-4-(dimethylamino)piperidin-1-yl)ethyl)-3-(1H-indol-3-yl)-N,4-dimethylpentanamide] | 27 | 94 | – | – |
| CN(C)c1ccc2cc(C(=O)NCCC(=O)N3CCC(c4ccccc4)(N(C)C)CC3)[nH]c2c1 [Example 120, 6-(dimethylamino)-N-(3-(4-(dimethylamino)-4-phenylpiperidin-1-yl)-3-oxopropyl)-1H-indole-2-carboxamide] | 45 | 60 | – | – |
| CN(CCN1CCC(c2ccccc2)(N(C)C)CC1)C(=O)Cc1c[nH]c2cc(F)ccc12 [Example 90, N-(2-(4-(dimethylamino)-4-phenylpiperidin-1-yl)ethyl)-2-(6-fluoro-1H-indol-3-yl)-N-methylacetamide] | – | – | 90 | 99 |
| CN(CCCN1CCC(c2ccccc2)(N(C)C)CC1)C(=O)C1CCCc2c1[nH]c1ccc(Cl)cc21 (stereo not shown) [Example 35, 6-Chloro-N-(3-(4-(dimethylamino)-4-phenylpiperidin-1-yl)propyl)-N-methyl-2,3,4,9-tetrahydro-1H-carbazole-1-carboxamide] | 79 | 57 | – | – |
| CN(C)C1(c2ccccc2)CCN(C(=O)CCNCc2c[nH]c3ccc(Br)cc23)CC1 [Example 162, 3-((5-bromo-1H-indol-3-yl)methylamino)-1-(4-(dimethylamino)-4-phenylpiperidin-1-yl)propan-1-one] | 63 | 80 | – | – |
| CC(C)C(C(=O)N1CCC(c2ccccc2)(N(C)C)CC1)N(C)C(=O)Cc1c[nH]c2cc(F)ccc12 (stereo not shown) [Example 82, N-(1-(4-(dimethylamino)-4-phenylpiperidin-1-yl)-3-methyl-1-oxobutan-2-yl)-2-(6-fluoro-1H-indol-3-yl)-N-methylacetamide] | 97 | 97 | – | – |
| CN(C)C1(c2ccccc2)CCN(C(=O)CCNC(=O)CCc2cn(C)c3ccccc23)CC1 [Example 117, N-(3-(4-(dimethylamino)-4-phenylpiperidin-1-yl)-3-oxopropyl)-3-(1-methyl-1H-indol-3-yl)propanamide] | 48 | 79 | – | – |
| CN(C)C1(c2cccs2)CCN(C(=O)CC(NCc2c[nH]c3ccc(Br)cc23)c2ccccc2)CC1 (stereo not shown) [Example 163, 3-((5-bromo-1H-indol-3-yl)methylamino)-1-(4-(dimethylamino)-4-(thiophen-2-yl)piperidin-1-yl)-3-phenylpropan-1-one] | 55 | 87 | – | – |
| Cc1c(CN(C)CCN2CCC(c3ccccc3)(N(C)C)CC2)c2ccccc2n1C [Example 189, 1-(2-(((1,2-dimethyl-1H-indol-3-yl)methyl)(methyl)amino)ethyl)-N,N-dimethyl-4-phenylpiperidin-4-amine] | 83 | 100 | – | – |
| CN(C)C1(c2cccs2)CCN(C(=O)CC(NC(=O)c2cccc3c2ccn3C)c2ccccc2)CC1 (stereo not shown) [Example 108, N-(3-(4-(dimethylamino)-4-(thiophen-2-yl)piperidin-1-yl)-3-oxo-1-phenylpropyl)-1-methyl-1H-indole-4-carboxamide] | 63 | 98 | – | – |
| CN(C)C1(c2cccs2)CCN(C(=O)CNCc2cccc3cc[nH]c23)CC1 [Example 172, 2-((1H-indol-7-yl)methylamino)-1-(4-(dimethylamino)-4-(thiophen-2-yl)piperidin-1-yl)ethanone] | 67 | 96 | – | – |
| CN(C(=O)Cc1c[nH]c2ccc(Br)cc12)C(C(=O)N1CCC(c2cccs2)(N(C)C)CC1)c1ccccc1 (stereo not shown) [Example 100, 2-(5-bromo-1H-indol-3-yl)-N-(2-(4-(dimethylamino)-4-(thiophen-2-yl)piperidin-1-yl)-2-oxo-1-phenylethyl)-N-methylacetamide] | 69 | 95 | – | – |
| CN(C)C1(c2ccccc2)CCN(C(=O)CCNC(=O)c2ccc3ccn(C)c3c2)CC1 [Example 99, N-(3-(4-(dimethylamino)-4-phenylpiperidin-1-yl)-3-oxopropyl)-1-methyl-1H-indole-6-carboxamide] | 71 | 87 | – | – |
| Cc1[nH]c2ccccc2c1CN1CCCC(C(=O)N2CCC(c3ccccc3)(N(C)C)CC2)C1 (stereo not shown) [Example 156, (4-(dimethylamino)-4-phenylpiperidin-1-yl)(1-((2-methyl-1H-indol-3-yl)methyl)piperidin-3-yl) methanone] | 39 | 57 | – | – |
| CC(C)C(CC(=O)N1CCCC(C(=O)N2CCC(c3ccccc3)(N(C)C)CC2)C1)c1c[nH]c2ccccc12 (stereo not shown) [Example 106, 1-(3-(4-(dimethylamino)-4-phenylpiperidine-1-carbonyl)piperidin-1-yl)-3-(1H-indol-3-yl)-4-methylpentan-1-one] | 63 | 92 | – | – |
| CN(C)C1(c2ccccc2)CCN(C(=O)C2CCCN(C(=O)CCc3c[nH]c4ccccc34)C2)CC1 (stereo not shown) [Example 123, 1-(3-(4-(dimethylamino)-4-phenylpiperidine-1-carbonyl)piperidin-1-yl)-3-(1H-indol-3-yl)propan-1-one] | 43 | 72 | – | – |
| CN(CCN1CCC(c2ccccc2)(N(C)C)CC1)C(=O)c1c[nH]c2ccccc12 [Example 12, N-(2-(4-(Dimethylamino)-4-phenylpiperidin-1-yl)ethyl)-N-methyl-1H-indole-3-carboxamide] | 67 | 84 | – | – |
| CN(C)C1(c2ccccc2)CCN(C(=O)C2CCCN(Cc3c(-c4ccc(F)cc4)[nH]c4ccccc34)C2)CC1 (stereo not shown) [Example 177, (4-(dimethylamino)-4-phenylpiperidin-1-yl)(1-((2-(4-fluorophenyl)-1H-indol-3-yl)methyl)piperidin-3-yl)methanone] | 51 | 94 | – | – |
| COc1ccc2[nH]c(C(=O)N(C)CCCN3CCC(c4cccs4)(N(C)C)CC3)cc2c1 [Example 22, N-(3-(4-(Dimethylamino)-4-(thiophen-2-yl)piperidin-1-yl)propyl)-5-methoxy-N-methyl-1H-indole-2-carboxamide] | 25 | 70 | – | – |
| CN(C)C1(c2cccs2)CCN(CCNC(=O)c2cccc3c2ccn3C)CC1 [Example 10, N-(2-(4-(Dimethylamino)-4-(thiophen-2-yl)piperidin-1-yl)ethyl)-1-methyl-1H-indole-4-carboxamide] | 56 | 99 | – | – |
| CC(CC(=O)NCCC(=O)N1CCC(c2ccccc2)(N(C)C)CC1)c1c[nH]c2ccccc12 (stereo not shown) [Example 92, N-(3-(4-(dimethylamino)-4-phenylpiperidin-1-yl)-3-oxopropyl)-3-(1H-indol-3-yl)butanamide] | 88 | 93 | – | – |
| CN(CCN1CCC(c2ccccc2)(N2CCCC2)CC1)C(=O)Cc1c[nH]c2cc(F)ccc12 [Example 36, 2-(6-Fluoro-1H-indol-3-yl)-N-methyl-N-(2-(4-phenyl-4-(pyrrolidin-1-yl)piperidin-1-yl)ethyl)acetamide] | 31 | 62 | – | – |
| CN(CCN1CCC(c2ccccc2)(N(C)C)CC1)C(=O)CCc1c[nH]c2ccccc12 [Example 4, N-(2-(4-(Dimethylamino)-4-phenylpiperidin-1-yl)ethyl)-3-(1H-indol-3-yl)-N-methylpropanamide] | 86 | 93 | – | – |
| CN(CCN1CCC(c2ccccc2)(N(C)C)CC1)C(=O)c1ccc2ccn(C)c2c1 [Example 29, N-(2-(4-(Dimethylamino)-4-phenylpiperidin-1-yl)ethyl)-N,1-dimethyl-1H-indole-6-carboxamide] | – | – | 51 | 94 |
